For test [1], the target named is Human plasma kallikrein (Homo sapiens (Human), UniProt P03952). Briefly: Determination of the IC50 for plasma kallikrein (fluorogenic substrate H-DPro-Phe-Arg-AFC). Particulars: 37° C., read-out: IC50 (human PKal). Format: biochemical. As to the method:
Determination of the IC50 Plasma Kallikrein Plasma kallikrein inhibitory activity in vitro was determined using standard published methods (see e.g. Johansen et al., Int. J. Tiss. […] Shori et al., Biochem. Pharmacol., 1992, 43, 1209; Stürzebecher et al., Biol. Chem. Hoppe-Seyler, 1992, 373, 1025). Human plasma kallikrein (Protogen) was incubated at 37° C. with the fluorogenic substrate […] and various concentrations of the test compound.

For test [2], the target named is Human KLK1 (Homo sapiens (Human), UniProt P06870). Briefly: Determination of the IC50 for KLK1 (fluorogenic substrate H-DVal-Leu-Arg-AFC). Type of test: biochemical. The note with it: human KLK1, 37° C. As to the method: Selected compounds were further screened for inhibitory activity against the related enzyme KLK1. The ability of the compounds of formula (I) to inhibit KLK1 may be determined using the following biological assay:
Determination of the IC50 for KLK1
KLK1 inhibitory activity in vitro was determined using standard published methods (see e.g. Johansen et al., Int. J. Tiss. Reac. 1986, 8, 185; Shori et al., Biochem. Pharmacol., 1992, 43, 1209; Stürzebecher et al., Biol. Chem. Hoppe-Seyler, 1992, 373, 1025). Human KLK1 (Callbiochem) was incubated at 37° C. with the fluorogenic substrate H-DVal-Leu-Arg-AFC and various concentrations of the test compound. Residual enzyme activity (initial rate of reaction) was determined by measuring the change in optical absorbance at 410 nm and the IC50 value for the test compound was determined.

Human plasma kallikrein, sequence (P03952 391-638 limits assumed): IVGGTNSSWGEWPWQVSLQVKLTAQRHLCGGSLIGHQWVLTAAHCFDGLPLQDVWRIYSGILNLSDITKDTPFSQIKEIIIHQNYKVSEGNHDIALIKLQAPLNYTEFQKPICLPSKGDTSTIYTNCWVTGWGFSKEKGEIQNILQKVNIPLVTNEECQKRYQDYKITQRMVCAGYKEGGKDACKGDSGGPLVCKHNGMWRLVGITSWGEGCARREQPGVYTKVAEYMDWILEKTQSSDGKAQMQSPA
Human plasma kallikrein, sequence (P03952 20-390 partner limits assumed): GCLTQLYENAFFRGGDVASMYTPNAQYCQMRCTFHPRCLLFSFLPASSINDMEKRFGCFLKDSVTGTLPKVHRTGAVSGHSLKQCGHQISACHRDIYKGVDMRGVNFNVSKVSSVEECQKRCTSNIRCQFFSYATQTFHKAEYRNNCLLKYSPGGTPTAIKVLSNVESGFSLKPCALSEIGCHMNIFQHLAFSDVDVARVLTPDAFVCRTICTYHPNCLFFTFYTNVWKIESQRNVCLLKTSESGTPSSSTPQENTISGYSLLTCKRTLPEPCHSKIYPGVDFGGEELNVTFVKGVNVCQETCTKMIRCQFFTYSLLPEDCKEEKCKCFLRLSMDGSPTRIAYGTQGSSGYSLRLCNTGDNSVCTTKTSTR
Human KLK1, sequence (P06870 25-262): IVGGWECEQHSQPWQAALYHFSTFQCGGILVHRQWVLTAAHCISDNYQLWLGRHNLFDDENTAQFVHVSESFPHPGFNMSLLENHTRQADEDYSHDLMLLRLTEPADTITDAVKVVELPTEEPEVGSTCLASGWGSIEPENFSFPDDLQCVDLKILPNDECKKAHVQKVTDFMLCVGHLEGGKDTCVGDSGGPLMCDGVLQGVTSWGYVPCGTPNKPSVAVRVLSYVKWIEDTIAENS

For the compound `CC1CCN(c2ccc(Cc3cncc(C(=O)NCc4ccc5c(N)nccc5c4)c3)cn2)C1` (stereo not shown) [Example 61, N-[(1-Aminoisoquinolin-6-yl)methyl]-5-{[6-(3-methylpyrrolidin-1-yl)pyridin-3-yl]methyl}pyridine-3-carboxamide], the IC50 is 137 nM in test [1] and 6550 nM in test [2].

In the case of `Nc1nccc2cc(CNC(=O)c3cncc(Cc4ccc(N5CCC(F)(F)C5)nc4)c3)ccc12` [Example 57, N-[(1-Aminoisoquinolin-6-yl)methyl]-5-{[6-(3,3-difluoropyrrolidin-1-yl)pyridin-3-yl]methyl}pyridine-3-carboxamide], the figures for the IC50 in test [1] and in test [2] were 240 nM and greater than 40000 nM, respectively.

With `COc1ncc(Cc2ccc3nc(C)ccc3c2)cc1C(=O)NCc1ccc2c(N)nccc2c1` [Example 19, N-[(1-Aminoisoquinolin-6-yl)methyl]-2-methoxy-5-[(2-methylquinolin-6-yl)methyl]pyridine-3-carboxamide], the half-maximal inhibitory concentration (IC50) in test [1] came out at 434 nM; in test [2] it was 1210 nM.

Consider `Cc1cnn(Cc2ccc(Cc3cncc(C(=O)NCc4c(C)cc(CN)cc4C)c3)cc2)c1` [Example 94, N-{[4-(Aminomethyl)-2,6-dimethylphenyl]methyl}-5-({4-[(4-methylpyrazol-1-yl)methyl]phenyl}methyl)pyridine-3-carboxamide], for which the IC50 in test [1] is 7.47 nM; in test [2], greater than 40000 nM.

On to `COc1ccc(Cc2cncc(C(=O)NCc3ccc4c(N)nccc4c3)c2)cc1` [Example 26, N-[(1-Aminoisoquinolin-6-yl)methyl]-5-[(4-methoxyphenyl)methyl]pyridine-3-carboxamide], for which the IC50 is 941 nM in test [1] and greater than 40000 nM in test [2].

With `Cc1ccc2cc(Cc3cnc(O)c(C(=O)NCc4ccc5c(N)nccc5c4)c3)ccc2n1` [Example 20, N-[(1-Aminoisoquinolin-6-yl)methyl]-5-[(2-methylquinolin-6-yl)methyl]-2-oxo-1H-pyridine-3-carboxamide], the IC50 stood at 621 nM in test [1] and 2490 nM in test [2].

Turning to `Nc1nccc2cc(CNC(=O)c3cncc(Cc4ccnc(N5CCCC5CO)c4)c3)ccc12` (stereo not shown) [Example 89, N-[(1-Aminoisoquinolin-6-yl)methyl]-5-({2-[2-(hydroxymethyl)pyrrolidin-1-yl]pyridin-4-yl}methyl)pyridine-3-carboxamide], the IC50 in test [1] was 104 nM; in test [2], 4840 nM.

For `Nc1nccc2cc(CNC(=O)c3cncc(Cc4ccc(N5CCC(C(=O)O)C5)nc4)c3)ccc12` (stereo not shown) [Example 75, 1-{5-[(5-{[(1-Aminoisoquinolin-6-yl)methyl]carbamoyl}pyridin-3-yl)methyl]pyridin-2-yl}pyrrolidine-3-carboxylic acid], the IC50 in test [1] was 6120 nM; in test [2], greater than 10000 nM.

`Nc1nccc2cc(CNC(=O)c3cncc(Cc4ccnc(N5CCC(F)(F)C5)c4)c3)ccc12` [Example 80, N-[(1-Aminoisoquinolin-6-yl)methyl]-5-{[2-(3,3-difluoropyrrolidin-1-yl)pyridin-4-yl]methyl}pyridine-3-carboxamide]: the concentration for half-maximal inhibition (IC50) in test [1] worked out at 88.5 nM; in test [2], 7550 nM.

As to `CN(C)[C@H]1CCN(c2ccc(Cc3cncc(C(=O)NCc4ccc5c(N)nccc5c4)c3)cn2)C1` (stereo in doubt) [Example 68, N-[(1-Aminoisoquinolin-6-yl)methyl]-5-({6-[3-(dimethylamino)pyrrolidin-1-yl]pyridin-3-yl}methyl)pyridine-3-carboxamide], the IC50 in test [1] is 375 nM; in test [2], 3510 nM.

Take `Nc1nccc2cc(CNC(=O)c3cncc(CN4CCN(Cc5cccc(F)c5)CC4)c3)ccc12` [Example 46, N-[(1-Aminoisoquinolin-6-yl)methyl]-5-({4-[(3-fluorophenyl)methl]piperazin-1-yl}methyl)pyridine-3-carboxamide]: the IC50 came out at 7510 nM in test [1] and 29200 nM in test [2].

For orientation: IC50 means the concentration that inhibits the measured activity by half.

The record behind these values is patent US10221161B2, “Inhibitors of plasma kallikrein” (Kalvista Pharmaceuticals Limited, priority 2013, dated 2019).
